Here are results for 40 molecules from the OPERA property sets (Mansouri et al. 2018).

Details in the first data set: not given
As to `CCC(C)C(C)(C)CC` (centres undefined), the boiling point (usually the temperature at which the vapour pressure of the liquid equals the pressure above it) worked out at 140 °C; the log10 vapour pressure (mmHg) turned out to be 0.948; the melting point (in general, the temperature of the solid-liquid transition) was -101 °C.

Regarding `CCCCCCCCCCCCCCCl`, the boiling point came to 292 °C, the log10 vapour pressure (mmHg) is -3.14 and the melting point stood at 4.9 °C.

On to `Oc1ccc2cc(Cl)ccc2c1`, for which the melting point came to 116 °C.

Turning to `CC1=CC(=O)CCC1`, the boiling point turned out to be 201 °C and the melting point was -21 °C.

`Cc1ccccc1CC(C)C`: the boiling point was determined as 196 °C and the melting point was -73.3 °C.

`N#C/C=C(\Cl)C#N` returned a boiling point of 172 °C and a melting point of 60.5 °C.

Regarding `COC(C)(C)CCOC(C)=O`, the ready biodegradability result is listed as “readily biodegradable”.

The molecule `CC(c1ccccc1)(c1ccccc1)c1ccccc1` displayed a melting point of 95 °C.

`CCCCOC(=O)c1ccc([N+](=O)[O-])cc1` had a melting point of 35.5 °C.

`O=C(O)C(Cl)CCl` (centres undefined): the boiling point is 210 °C and the melting point stood at 50 °C.

In turn, `CCC1(CCC(C)C)C(=O)NC(=O)NC1=O` came in with a melting point of 157 °C.

The molecule `CCCCCCN1CC(C(=O)O)CC1=O` (centres undefined) had a melting point of 42.5 °C.

With `CC1CCc2ccccc2C1` (centres undefined), the boiling point is 221 °C and the melting point is -43.1 °C.

Take `C=CC#CC=C`: the boiling point worked out at 85 °C and the melting point is -88 °C.

Molecule `CCCn1cnc2c1c(=O)n(CCCCC(C)=O)c(=O)n2C` displayed a melting point of 69 °C.

With `CCOc1cc(C=O)ccc1O`, the boiling point is 294 °C, the log10 vapour pressure (mmHg) was -4.98, the melting point was 77.5 °C and the ready biodegradability result was “readily biodegradable”.

As for `CNC(=O)Nc1cccc(Cl)c1`, the log10 Koc (L/kg) was found to be 1.93.

`CNC(=O)ON=C(CSC)C(C)(C)C` returned a log10 vapour pressure (mmHg) of -3.77 and a melting point of 57 °C.

`CC(Cl)CCCl` (centres undefined): the boiling point was determined as 134 °C.

Consider `C#C[C@]1(O)CC[C@H]2[C@@H]3CCc4cc(OC5CCCC5)ccc4[C@H]3CC[C@@]21C`, for which the melting point amounted to 108 °C.

In turn, `CCOC(=O)C(CC)C(C)=O` (centres undefined) returned a boiling point of 198 °C.

The molecule `NC(=O)c1cccc2ccccc12` yielded a melting point of 206 °C.

On to `Nc1cc(Cl)c(Cl)c(Cl)c1Cl`, for which the log10 Koc (L/kg) was determined as 3.03.

Turning to `C=Cc1ccc(C)nc1`, the boiling point amounted to 181 °C and the log10 vapour pressure (mmHg) was determined as 0.0719.

Take `CC(C)(C)c1cc(C(C)(C)C)c(O)c(C(C)(C)C)c1`: the boiling point was found to be 278 °C, the log10 vapour pressure (mmHg) was -3.18, the melting point came out at 131 °C and the ready biodegradability entry is “not readily biodegradable”.

As for `Cc1ccccc1Oc1ccccc1`, the boiling point was found to be 264 °C and the melting point stood at 21.7 °C.

As to `Nc1nc(N)nc(N)n1`, the log10 vapour pressure (mmHg) is -9.44 and the ready biodegradability entry is “not readily biodegradable”.

As for `CCC`, the boiling point was -42.1 °C, the log10 Koa stood at 0.97, the log10 vapour pressure (mmHg) is 3.85 and the melting point is -188 °C. The ready biodegradability entry is reported as “readily biodegradable”.

In turn, `CC(Cl)(Cl)C(=O)Cl` displayed a boiling point of 118 °C.

For the molecule `CCCCCCCCCCCCCCCC(=O)OC[C@@H](O)[C@H]1OC[C@H](O)[C@H]1O`, the ready biodegradability result is recorded as “readily biodegradable”.

`O=C(O)c1cc(-c2ccc(F)cc2F)ccc1O` returned a melting point of 216 °C.

Turning to `CC1(C)C(=O)[C@@]2(C)CC[C@@H]1C2`, the boiling point is 193 °C.

The molecule `CCC(=O)CC(C)C` gave a boiling point of 135 °C.

In turn, `CCC(C(=O)O)c1ccc(N2Cc3ccccc3C2=O)cc1` (centres undefined) returned a melting point of 183 °C.

Regarding `CCCC(CCC)C(C)C`, the boiling point is 159 °C.

Molecule `CCCCCCCCCc1ccc(O)cc1` returned a log10 Koc (L/kg) of 3.84, a log10 vapour pressure (mmHg) of -3.09 and a melting point of 42 °C.

`ClCC1C(CCl)C2(Cl)C(Cl)=C(Cl)C1(Cl)C2(Cl)Cl` (centres undefined): the melting point was 105 °C.

On to `CC1(c2ccccc2)OC(C(=O)O)=CC1=O` (centres undefined), for which the melting point stood at 176 °C.

`ClC1=C(Cl)[C@]2(Cl)[C@H]3[C@H]([C@@H]4O[C@]4(Cl)[C@@H]3Cl)[C@@]1(Cl)C2(Cl)Cl` (mixture of isomers) gave a boiling point of 353 °C, a log10 Koa of 8.39 and a melting point of 144 °C.

`O=C(O)CNCC(=O)O` had a melting point of 248 °C.

The data set is the same for the next values; noted with them: fish.
`Nc1cc(Cl)c(Cl)c(Cl)c1Cl` had a log10 BCF of 2.21.

For `CC(C)(C)c1cc(C(C)(C)C)c(O)c(C(C)(C)C)c1`, the log10 BCF came out at 4.14 and the log10 biotransformation half-life (days) came to 1.81.

Molecule `Nc1nc(N)nc(N)n1` gave a log10 BCF of 0.58.

On to `CCCCCCCCCc1ccc(O)cc1`, for which the log10 BCF came to 2.58 and the log10 biotransformation half-life (days) is -0.23.
